Test system: CYP3A4 mRNA expression
Assay: CYP3A4 mRNA expression by qRT-PCR in HepaRG cells treated with compound alone
Type: cell-based, human
Settings: 24 h, compound at its IC70 concentration, vs DMSO
Protocol: Fully differentiated NoSpin™ HepaRG™ cells (Lonza, Walkersville, Maryland) were seeded into 12-well collagen-coated plates (Corning) at a density of 8 × 10^5 cells/well using Williams’ E medium (ThermoFisher) supplemented with HepaRG™ thawing and plating medium supplement (Lonza), 25 U/mL penicillin, and 25 μg/mL streptomycin (Invitrogen). The cells were then placed into a 37°C and 5% CO2 incubator for 3 days including a media change before treatment. Cells were then treated with the vehicle control (final concentration of 0.1% DMSO), the positive controls, or test compounds for 24 h before harvesting.
Total RNA was extracted from the cell lysate using an RNeasy Mini kit (Qiagen) according to the manufacturer’s instructions. RNA was reverse transcribed to cDNA using a High-Capacity RNA-to-cDNA kit (Applied Biosystems). CYP3A4 and CYP2B6 mRNA expression were both measured and normalized to the glyceraldehyde-3-phosphate dehydrogenase (GAPDH) housekeeping gene. Real-time PCR was completed using a QuantStudio Real-Time PCR system (Applied Biosystems) with TaqMan probes (CYP3A4 Assay ID: Hs00604506_m1, CYP2B6 Assay ID: Hs04183483_g1, GAPDH Assay ID: Hs99999905_m1, ThermoFisher Scientific, Waltham, MA). Following amplification, induction values were calculated using the equation: Fold = 2^−ΔΔCt, where ΔCt represents the difference in number of cycles required to reach the Ct threshold between CYP3A4 or CYP2B6 and GAPDH, and ΔΔCt represents the relative change in these differences between the control (DMSO) and treatment groups. Experimental data are expressed as a mean of triplicate values ±SD. Statistical analysis was performed using one-way analysis of variance with post hoc Dunnett’s analysis. The statistical significance values were set at p < 0.05 (*), p < 0.01 (**), and p < 0.001 (***).
To overcome the previous screening limitations, we used this more physiologically relevant cell line, HepaRG cells, to run follow-up studies with the PXR antagonists identified from the primary screen which used immortalized cell lines without a metabolic component. Using HepaRG cells, the 20 potential PXR antagonists were treated for 24 h and harvested for mRNA (Supplementary Figure S1).
FIGURE 3 HepaRG cells were treated with the top 20 most promising PXR antagonists identified from the high-throughput screen. […] The concentrations for the test compounds were the IC70 values from the original NPACT screen. Real-time PCR was used to analyze the mRNA expression of CYP3A4. Each bar represents the mean ± SD in triplicate. *, p < 0.05; **, p < 0.01.

COc1cc(-c2cn(C3CCc4c(F)cccc4N(CC(F)(F)F)C3=O)nn2)ccc1-n1cnc(C)c1 (centres unmarked) [GSM2]
inhibition of CYP3A4 mRNA expression (in words): significantly inhibited CYP3A4 mRNA expression

CC(=O)O[C@H]1C[C@@]2(C)[C@@H](C[C@@H](O)[C@H]3[C@@]4(C)CC[C@@H](O)[C@@H](C)[C@@H]4CC[C@@]32C)/C1=C(\CCC=C(C)C)C(=O)O [fusidic acid]
inhibition of CYP3A4 mRNA expression (in words): significantly inhibited CYP3A4 mRNA expression

— paper PMC11537999, “Identification of human pregnane X receptor antagonists utilizing a high-throughput screening platform” (Frontiers in Pharmacology, 2024)
